Results: ChEMBL document CHEMBL1138818, “Design and synthesis of cyclic urea compounds: a pharmacological study for retinoidal activity” (2004)
Activity calls are given as the source filed them. The calls are words filed in the database; no cut-off is given here.

system: HL-60; assay: Effective concentration required for induction of differentiation of HL-60 cells into mature granulocytes.( >10e-6= slight activity at 10e-6); type: functional; details: Homo sapiens, read-out: ED50 (the source's name)

EC50	SMILES
> 10000 nM	CC1(C)CCC(C)(C)c2cc(NC(=O)Nc3ccc(C(=O)O)cc3)ccc21

system: HL-60; assay: Effective concentration required for induction of differentiation of HL-60 cells into mature granulocytes.; type: functional; details: Homo sapiens, read-out: ED50 (the source's name)

EC50	SMILES
2.4 nM	CC1=C(/C=C/C(C)=C/C=C/C(C)=C/C(=O)O)C(C)(C)CCC1 [TRETINOIN]
8.3 nM	CC(C)(C)c1cc(N2CCN(c3ccc(C(=O)O)cc3)C2=O)cc(C(C)(C)C)c1
120 nM	CC1(C)CCC(C)(C)c2cc(N3CCN(c4ccc(C(=O)O)cc4)C3=O)ccc21
490 nM	CC(C)(C)c1cc(N2CCCN(c3ccc(C(=O)O)cc3)C2=O)cc(C(C)(C)C)c1
0.8 nM	CC1(C)CCC(C)(C)c2cc(NC(=O)c3ccc(C(=O)O)cc3)ccc21 [TAMIBAROTENE]

system: HL-60; assay: Effective concentration required for induction of differentiation of HL-60 cells into mature granulocytes. IA = No activity at E-6; type: functional, cell-based; details: Homo sapiens

SMILES	ED50
CC(C)(C)c1ccc(N2CCN(c3ccc(C(=O)O)cc3)C2=O)cc1	inactive
O=C(O)c1ccc(N2CCCN(c3ccccc3)C2=O)cc1	inactive
O=C(O)c1ccc(N2CCN(c3ccccc3)C2=O)cc1	inactive
CC(C)(C)c1ccc(N2CCCN(c3ccc(C(=O)O)cc3)C2=O)cc1	inactive
CC1(C)CCC(C)(C)c2cc(N3CCCN(c4ccc(C(=O)O)cc4)C3=O)ccc21	inactive
